Experimental data: patent publication US9062066B2, “Anti-inflammatory compound having inhibitory activity against multiple tyrosine kinases and pharmaceutical composition containing same” (KOREA INSTITUTE OF SCIENCE AND TECHNOLOGY, priority 2010, dated 2015)
Read-outs that look alike come from different tables or passages of the source.

How the values were obtained:
Hck tyrosine kinase = Hck tyrosine kinase (Homo sapiens (Human), UniProt P08631); assay: in vitro Hck tyrosine kinase inhibition; assay type: biochemical; settings: 1 uM compound; read-out: % inhibition against Hck
Lyn tyrosine kinase = Lyn tyrosine kinase (Homo sapiens (Human), UniProt P07948); assay: in vitro Lyn tyrosine kinase inhibition; assay type: biochemical; settings: 1 uM compound; read-out: % inhibition against Lyn
[1] = system: TNF-α synthesis in J744A.1 macrophages; assay: inhibition of TNF-α synthesis in LPS-activated macrophages (ELISA); assay type: cell-based; settings: Macrophage, read-out: Inhibition (%) of TNF-α synthesis
DDR2 tyrosine kinase = DDR2 tyrosine kinase (Homo sapiens (Human), UniProt Q16832); assay: in vitro DDR2 tyrosine kinase inhibition (GST-fused kinase domain); assay type: biochemical; settings: 1 uM compound; read-out: % inhibition against DDR2
[2] = system: oxazolone-induced skin inflammation of Balb/C mouse ears; assay: mouse skin inflammatory model induced by oxazolone (ear thickness); assay type: in vivo; settings: 20 ul of 0.1% compound topical on ear, 36 hours after oxazolone
Description: The compounds of the present invention were evaluated for their effective anti-inflammatory activity using a skin inflammatory animal model of 8 weeks old Balb/C mouse ears induced by oxazolone. […] After 4 days, the thickness of ear was measured using a caliper for the thickness value of ear before the induction of inflammation. […] After 36 hours, the thickness of ear was measured for the increased thickness induced by inflammation. […] The average value was obtained in each group (n=4).

[3] = system: α-smooth muscle actin protein expression in skin fibroblast cells; assay: inhibition of α-smooth muscle actin expression in fibroblast activated by type I collagen and TGF-β1 (western blotting); assay type: cell-based, Balb/C mouse; settings: Mus musculus, 0.5 uM compound, 10 ng/ml TGF-β1, 48 hours, type I collagen, read-out: Inhibition (%) of α-smooth muscle actin increase
Excerpt: When fibroblast, […] alpha smooth muscle cells are converted to myofibroblast by activation, one of characteristic features is that α-smooth muscle actin protein expression is increased. Also myoblast cells with the increased α-smooth muscle actin expression have a character of an increased migration. These phenomena appear together with the activation of inflammatory cells and the activated myoblast-type cells are known to contribute directly to the pathology of inflammatory diseases. […] In this experiment, the expression level of alpha smooth muscle actin can be quantificated by measuring the density of α-smooth muscle actin protein band with densitometer after developing the X-ray film of chemiluminescence signal in western blotting experiment.

mouse skin fibroblast = assay: inhibition of migration of activated fibroblast (scratch wound); assay type: cell-based; settings: 0.5 uM compound, 10 ng/ml TGF-β1, 24 hours, read-out: Inhibition (%) of migration of activated fibroblast
Description: The straight line of regular width was made using a micro pipette tip for a scratch wound on the mono-layer culture, and then the culture was exchanged to DMEM medium and incubated with 10 ng/ml of TGF-β1 in cell culture incubator of 37° C. for 24 hours. The cultured cells were fixed using formalin and stained with crystal violet. Photo-pictures were taken at 100× magnification in five location selected randomly in the scratched wound site of each stained culture dish and then the number of the cells moved into the scratched wound area was counted and averaged.

DDR1 tyrosine kinase = DDR1 tyrosine kinase (Homo sapiens (Human), UniProt Q08345); assay: in vitro DDR1 tyrosine kinase inhibition (GST-fused kinase domain); assay type: biochemical; settings: 1 uM compound; read-out: % inhibition against DDR1
Fgr tyrosine kinase = Fgr tyrosine kinase (Homo sapiens (Human), UniProt P09769); assay: in vitro Fgr tyrosine kinase inhibition; assay type: biochemical; settings: 1 uM compound; read-out: % inhibition against Fgr
c-Src tyrosine kinase = c-Src tyrosine kinase (Homo sapiens (Human), UniProt P12931); assay: in vitro c-Src tyrosine kinase inhibition (32P-ATP, poly(D4Y)n substrate); assay type: biochemical; settings: 1 uM compound; read-out: % inhibition against c-Src
[4] = system: NO synthesis in J744A.1 macrophage; assay: inhibition of nitric oxide (NO) synthesis in LPS-activated macrophages (Griess reagent); assay type: cell-based; settings: read-out: Inhibition (%) of NO synthesis
[5] = 10 μM compound, 100 ng/ml LPS, 6 hours

Sequence of Fgr tyrosine kinase (P09769 whole entry): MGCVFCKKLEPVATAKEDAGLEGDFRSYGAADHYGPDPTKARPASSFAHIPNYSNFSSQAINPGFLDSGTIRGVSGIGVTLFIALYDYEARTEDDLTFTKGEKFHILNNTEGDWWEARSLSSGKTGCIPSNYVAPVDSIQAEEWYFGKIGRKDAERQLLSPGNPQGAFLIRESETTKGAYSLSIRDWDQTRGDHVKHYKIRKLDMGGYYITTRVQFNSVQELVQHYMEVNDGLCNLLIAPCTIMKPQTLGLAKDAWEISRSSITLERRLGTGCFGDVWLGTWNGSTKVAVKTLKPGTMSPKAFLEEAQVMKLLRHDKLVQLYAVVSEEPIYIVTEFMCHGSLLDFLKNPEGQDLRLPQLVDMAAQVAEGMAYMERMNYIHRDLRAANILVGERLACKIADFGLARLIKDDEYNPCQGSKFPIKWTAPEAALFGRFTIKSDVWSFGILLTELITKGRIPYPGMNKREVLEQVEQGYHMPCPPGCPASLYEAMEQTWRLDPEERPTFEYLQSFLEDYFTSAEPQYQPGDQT
Sequence of DDR2 tyrosine kinase (Q16832 563-849): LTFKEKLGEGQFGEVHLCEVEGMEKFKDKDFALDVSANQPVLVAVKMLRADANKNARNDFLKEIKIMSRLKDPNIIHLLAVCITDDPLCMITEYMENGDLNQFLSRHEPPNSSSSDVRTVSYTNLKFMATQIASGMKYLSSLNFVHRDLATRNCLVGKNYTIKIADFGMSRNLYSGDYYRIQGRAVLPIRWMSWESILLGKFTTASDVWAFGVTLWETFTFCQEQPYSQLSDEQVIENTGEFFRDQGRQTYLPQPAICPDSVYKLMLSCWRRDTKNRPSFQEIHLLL
Sequence of DDR1 tyrosine kinase (Q08345 610-905): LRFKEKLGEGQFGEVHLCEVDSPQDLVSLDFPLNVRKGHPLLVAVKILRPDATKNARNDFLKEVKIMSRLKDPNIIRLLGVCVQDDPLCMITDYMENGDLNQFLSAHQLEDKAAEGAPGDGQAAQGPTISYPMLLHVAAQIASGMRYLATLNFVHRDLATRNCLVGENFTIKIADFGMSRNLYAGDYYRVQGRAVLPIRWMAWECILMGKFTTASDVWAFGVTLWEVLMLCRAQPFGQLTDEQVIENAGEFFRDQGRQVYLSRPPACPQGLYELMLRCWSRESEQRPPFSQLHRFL
Sequence of Lyn tyrosine kinase (P07948 whole entry): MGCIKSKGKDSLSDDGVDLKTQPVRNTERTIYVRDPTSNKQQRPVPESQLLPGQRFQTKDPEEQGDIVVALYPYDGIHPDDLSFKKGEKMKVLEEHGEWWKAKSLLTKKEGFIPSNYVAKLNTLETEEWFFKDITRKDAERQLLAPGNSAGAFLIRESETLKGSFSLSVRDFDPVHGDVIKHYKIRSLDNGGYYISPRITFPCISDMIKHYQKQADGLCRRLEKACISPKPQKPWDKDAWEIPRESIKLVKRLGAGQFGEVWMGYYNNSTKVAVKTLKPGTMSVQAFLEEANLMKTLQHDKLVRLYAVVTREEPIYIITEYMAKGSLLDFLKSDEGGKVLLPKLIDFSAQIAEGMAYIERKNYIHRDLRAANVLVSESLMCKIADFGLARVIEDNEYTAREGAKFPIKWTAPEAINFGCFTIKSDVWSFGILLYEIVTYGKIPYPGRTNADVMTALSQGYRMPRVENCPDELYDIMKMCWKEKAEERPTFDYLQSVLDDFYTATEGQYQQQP
Sequence of c-Src tyrosine kinase (P12931 whole entry, looked up): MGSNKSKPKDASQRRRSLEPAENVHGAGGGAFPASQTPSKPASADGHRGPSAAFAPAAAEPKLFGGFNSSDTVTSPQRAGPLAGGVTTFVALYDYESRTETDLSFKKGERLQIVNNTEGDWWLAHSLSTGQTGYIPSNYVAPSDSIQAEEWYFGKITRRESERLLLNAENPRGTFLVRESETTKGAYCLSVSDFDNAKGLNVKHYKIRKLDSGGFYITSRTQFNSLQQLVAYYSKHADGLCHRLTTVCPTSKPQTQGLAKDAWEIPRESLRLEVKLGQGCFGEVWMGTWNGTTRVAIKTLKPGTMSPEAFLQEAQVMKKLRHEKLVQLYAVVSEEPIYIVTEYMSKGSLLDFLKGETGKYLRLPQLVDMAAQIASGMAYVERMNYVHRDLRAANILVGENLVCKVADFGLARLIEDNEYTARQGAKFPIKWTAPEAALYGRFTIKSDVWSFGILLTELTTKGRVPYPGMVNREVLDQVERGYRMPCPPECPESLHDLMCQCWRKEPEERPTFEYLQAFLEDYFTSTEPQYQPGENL
Sequence of Hck tyrosine kinase (P08631 whole entry): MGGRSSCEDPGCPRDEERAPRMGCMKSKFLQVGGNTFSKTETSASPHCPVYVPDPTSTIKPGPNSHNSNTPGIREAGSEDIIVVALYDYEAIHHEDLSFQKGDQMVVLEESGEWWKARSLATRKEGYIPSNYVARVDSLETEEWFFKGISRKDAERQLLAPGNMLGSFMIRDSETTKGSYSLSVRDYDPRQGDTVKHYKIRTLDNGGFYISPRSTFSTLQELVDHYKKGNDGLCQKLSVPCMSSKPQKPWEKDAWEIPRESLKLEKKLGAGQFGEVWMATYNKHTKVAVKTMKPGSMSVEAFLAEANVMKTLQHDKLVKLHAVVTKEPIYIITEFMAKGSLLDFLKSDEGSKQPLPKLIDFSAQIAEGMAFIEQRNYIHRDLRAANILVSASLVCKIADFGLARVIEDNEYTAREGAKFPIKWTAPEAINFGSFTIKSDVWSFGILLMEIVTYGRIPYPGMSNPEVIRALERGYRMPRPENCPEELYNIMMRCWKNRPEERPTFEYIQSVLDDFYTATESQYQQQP

Structure (SMILES)	inhibition at 1 µM (Hck tyrosine kinase)	inhibition at 1 µM (Lyn tyrosine kinase)	inhibition at 10 µM [1, 5]	inhibition at 1 µM (DDR2 tyrosine kinase)	Inhibition (%) of increase of ear thickness [2]	inhibition at 0.5 µM [3]	inhibition at 0.5 µM (mouse skin fibroblast)	inhibition at 1 µM (DDR1 tyrosine kinase)	inhibition at 1 µM (Fgr tyrosine kinase)	inhibition at 1 µM (c-Src tyrosine kinase)	inhibition at 10 µM ([4]; 10 μM compound, LPS, 24 hours)	inhibition at 10 µM ([1]; 6 h)	inhibition at 10 µM ([4]; 24 h)
CO[C@@H]1C[C@@H](CO)N(C(=O)c2cc3nccc(Nc4ccc5c(c4)cc(C)n5C(=O)NC4CC4)c3s2)C1 [Control compound 3, reference compound]	< 20%	< 20%	19%	< 20%	22%	8%	11%	< 20%	< 20%	< 20%	21%		
Oc1cccc(Nc2ncnc3cc(-c4ccc(CN5CCOCC5)o4)sc23)c1 [LCB 03-0089, 3-(6-(5-(morpholinomethyl)furan-2-yl)thieno[3,2-d]pyrimidin-4-ylamino)phenol]	> 70%	> 70%		> 70%	59%	25%	19%	> 70%	> 70%	> 70%		71%	86%
C[C@@H]1CCC[C@H](C)N1Cc1ccc(-c2cc3ncnc(Nc4cccc(O)c4)c3s2)cc1.Cl [LCB 03-0059, 3-(6-(4-(((2R,6S)-2,6-dimethylpiperidin-1-yl)methyl)phenyl)thieno[3,2-d]pyrimidin-4-ylamino)phenol]	> 50%	> 50%	74%	> 80%	59%	56%	29%	> 80%	> 50%	> 50%	88%		
Cl.OCCNCc1ccc(-c2cc3ncnc(Nc4cccc(O)c4)c3s2)cc1 [LCB 03-0070, 3-(6-(4-((2-hydroxyethylamino)methyl)phenyl)thieno[3,2-d]pyrimidin-4-ylamino)phenol]	> 80%	> 80%	77%	> 80%	55%	42%	30%	> 80%	> 80%	> 80%	90%		
CN1CCN(Cc2ccc(-c3cc4nccc(Nc5cccc(O)c5)c4s3)cc2)CC1 [LCB 03-0084, 3-(2-(4-((4-methylpiperazin-1-yl)methyl)phenyl)thieno[3,2-b]pyridin-7-ylamino)phenol]	> 60%	> 60%	64%	> 80%	49%	57%	36%	> 80%	> 60%	> 60%	85%		
Cl.Oc1cccc(Nc2ncnc3cc(-c4cccc(CCN5CCCC5)c4)sc23)c1 [LCB 03-0076, 3-(6-(3-(2-(pyrrolidin-1-yl)ethyl)phenyl)thieno[3,2-d]pyrimidin-4-ylamino)phenol]	> 80%	> 80%	90%	> 80%	54%	57%	45%	> 80%	> 80%	> 80%	91%		
CC(C)CNCc1ccc(-c2cc3ncnc(Nc4cccc(O)c4)c3s2)cc1 [LCB 03-0041]	> 80%	> 80%	87%	> 80%	29%	66%	39%	> 80%	> 80%	> 80%	91%		
CCNCc1ccc(-c2cc3ncnc(Nc4cccc(O)c4)c3s2)cc1 [LCB 03-0042]	> 80%	> 80%	98%	> 80%	33%	69%	46%	> 80%	> 80%	> 80%	91%		
CN1CCN(Cc2cccc(-c3cc4ncnc(Nc5cccc(O)c5)c4s3)c2)CC1.Cl [LCB 03-0061, 3-(6-(3-((4-methylpiperazin-1-yl)methyl)phenyl)thieno[3,2-d]pyrimidin-4-ylamino)phenol]	> 80%	> 80%	91%	> 80%	55%	68%	44%	> 80%	> 80%	> 80%	92%		
Oc1cccc(Nc2ncnc3cc(-c4ccc(CN5CCCC5)o4)sc23)c1 [LCB 03-0086, 3-(6-(5-(pyrrolidin-1-ylmethyl)furan-2-yl)thieno[3,2-d]pyrimidin-4-ylamino)phenol]	> 70%	> 70%		> 80%	48%	33%	21%	> 80%	> 70%	> 70%		68%	72%
Oc1cccc(Nc2ncnc3cc(-c4ccc(CN5CCNCC5)cc4)sc23)c1 [LCB 03-0033, 3-(6-(4-(piperazine-1-ylmethyl)phenyl)thieno[3,2-d]pyrimidin-4-ylamino)phenol]	> 60%	> 60%	59%	> 80%	22%	60%	30%	> 80%	> 60%	> 60%	77%		
Oc1cccc(Nc2ncnc3cc(-c4ccc(CN5CCNCC5)o4)sc23)c1 [LCB 03-0090, 3-(6-(5-(piperazin-1-ylmethyl)furan-2-yl)thieno[3,2-d]pyrimidin-4-ylamino)phenol]	> 70%	> 70%		> 70%	56%	44%	26%	> 70%	> 70%	> 70%		63%	90%
Oc1cccc(Nc2ncnc3cc(-c4ccc(CN5CCNCC5)s4)sc23)c1 [LCB 03-0094, 3-(6-(5-(piperazin-1-ylmethyl)thiophene-2-yl)thieno[3,2-d]pyrimidin-4-ylamino)phenol]	> 60%	> 60%		> 80%	49%	41%	29%	> 80%	> 60%	> 60%		56%	77%
Oc1cccc(Nc2ncnc3cc(-c4ccc(CN5CCOCC5)cc4)sc23)c1 [LCB 03-0032, 3-(6-(4-(morpholinomethyl)phenyl)thieno[3,2-d]pyrimidin-4-ylamino)phenol]	> 80%	> 80%	77%	> 80%	27%	56%	35%	> 80%	> 80%	> 80%	92%		
